# Results from patent publication US7786141B2 (Vertex Pharmaceuticals Incorporated, priority 2004, dated 2010).
# Columns and labels:
# M1 muscarinic receptor = target: T1, M1 muscarinic receptor (Homo sapiens, UniProt P11229); assay: Functional mobilization of intracellular calcium (FLIPR) in M1-CHO cells; type: cell-based; details: M1 receptor, calcium mobilization; for Emax: read-out: M1 Efficacy
# T1 construct: expressed in transfected cells; host or cells: CHO (M1-CHO)
# T1 sequence (P11229 1-460): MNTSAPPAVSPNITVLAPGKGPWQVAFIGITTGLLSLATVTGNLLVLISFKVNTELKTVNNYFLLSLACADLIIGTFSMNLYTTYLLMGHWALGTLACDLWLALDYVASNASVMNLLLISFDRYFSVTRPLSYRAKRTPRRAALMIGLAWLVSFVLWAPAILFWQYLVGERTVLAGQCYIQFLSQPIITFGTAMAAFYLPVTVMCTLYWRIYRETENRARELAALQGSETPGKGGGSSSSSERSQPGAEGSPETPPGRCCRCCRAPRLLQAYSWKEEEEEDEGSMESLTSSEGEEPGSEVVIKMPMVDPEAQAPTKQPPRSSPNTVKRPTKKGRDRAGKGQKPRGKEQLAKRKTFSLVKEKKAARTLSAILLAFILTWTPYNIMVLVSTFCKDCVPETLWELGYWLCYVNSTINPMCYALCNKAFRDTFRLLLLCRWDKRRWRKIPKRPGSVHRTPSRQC
# Description: (§1) Functional Mobilization of Intracellular Calcium to Determine Muscarinic Receptor Activity:
# (§2) CHO cells expressing muscarinic receptors (M1 to M5) are grown as monolayers in tissue culture flasks at 37° C. in a humidified atmosphere containing 5% CO2 and passaged every 3-5 days. The growth media is Dulbecco's modified eagles medium (DMEM, Gibco Cat# 12430-054), containing 25 mM Hepes and supplemented with Fetal Bovine Serum (Hyclone, cat# SH30071.03), 0.1 mM of MEM non-essential amino acids (GIBCO, Cat# 11140-050), 1 mM MEM Sodium Pyruvate (GIBCO Cat# 11360-070) and 100 units/ml of Penicillin G and 100 μg/ml of Streptomycin (GIBCO Cat# 15140-122). The recombinant muscarinic receptor cell lines are grown under antibiotic pressure with media containing 25 μg/ml zeocin and 500 μg/ml G418 (M1-CHO), 4 μg/ml puromycin, 50 μg/ml zeocin and 2.5 μg/ml blasticidin (M2 and M4-CHO) or 50 μg/ml zeocin and 4 μg/ml puromycin (M3 and M5-CHO).
# (§3) Cells are harvested at 80-90% confluence using Versene (GIBCO Cat# 15040-066), collected by centrifugation and seeded 18-24 hrs prior to running the calcium assay at a density of 5,000 cells/well in back-walled, clear-bottomed 384-well plates (BD Biocoat, poly-D-lysine, Cat#356663). The day of the experiment, the cells are washed with a plate washer (Bioteck Instruments, ELX 405) using bath 1 buffer (140-mM NaCl, 4.5-mM KCl, 2-mM CaCl2, 1-mM MgCl2, 10-mM Hepes-Na, 10-mM Glucose, pH 7.4, with NaOH) containing 1 mM Probenecid. Next, the calcium dye Fluo-3 (25 μl/well of Fluo-3 AM at 4 μM, Molecular Probes F-1241, in Bath 1 buffer containing 1 mM Probenecid) is added to the 25 μl of Bath 1 remaining in each well after the plate wash and the dye is loaded at 37° C. in the tissue culture incubator for 60-90 min. The fluorescent dye is removed using the plate washer with Bath 1 containing 1 mM Probenecid, leaving 25 μl/well of this solution after the wash. Alternatively, cells can be loaded with the calcium indicator from Molecular Devices (Calcium 3 Assay Reagents, Cat # R7181) adding 5 μl of a 5× solution dye in Bath 1 containing 1 mM Probenecid (10 ml per dye flask cat# R7182 to generate a solution 20×) to 20 μl of the same buffer. After loading for 60 min, the experiment can be run without having to remove the dye.
# (§4) Compounds are prepared at a 2× fold concentration in a 96-well plate (round bottom, Costar Corning cat# 3656), by reconstituting the pre-spotted compounds in bath 1 containing 1 mM probenecid. The final concentration DMSO is 0.5%, and the amount of DMSO is normalized across the assay plate. To determine an agonist action of the compounds on muscarinic receptors, the reconstituted compounds are added (25 μl compound/well) to the cell assay plate (containing 25 μl/well) using the multi-channel robotic system of the FLIPR 3 Instrument (Molecular Devices, Sunnyvale, Calif.). To determine a functional inhibitory action of the compounds on muscarinic receptors, the reconstituted compounds are added (25 μl compound/well) to the assay plate and pre-incubated for 15 min prior to adding 25 μl of Carbachol at 3× the EC80 for each muscarinic subtype. Alternatively, the compounds can be co-applied simultaneously with the agonist. In both assay modes, the fluorescence is recorded for 60 sec (excitation wavelength is […] and emission wavelength 540 nm) using the FLIPR 3 instrument.
# (§5) The potency, efficacy and selectivity of the muscarinic compounds were evaluated by screening the compound activity across the whole family (M1 to M5 cells). Compounds were also screened for activity on other proteins such as other GPCRs and ion channels to determine selectivity on M4 receptors.
# M4 muscarinic receptor = target: T2, M4 muscarinic receptor (Homo sapiens, UniProt P08173); assay: Functional mobilization of intracellular calcium (FLIPR) in M4-CHO cells; type: cell-based; details: M4 receptor, calcium mobilization; for Emax: read-out: M4 Efficacy
# T2 construct: expressed in transfected cells; host or cells: CHO (M4-CHO)
# T2 sequence (P08173 1-479): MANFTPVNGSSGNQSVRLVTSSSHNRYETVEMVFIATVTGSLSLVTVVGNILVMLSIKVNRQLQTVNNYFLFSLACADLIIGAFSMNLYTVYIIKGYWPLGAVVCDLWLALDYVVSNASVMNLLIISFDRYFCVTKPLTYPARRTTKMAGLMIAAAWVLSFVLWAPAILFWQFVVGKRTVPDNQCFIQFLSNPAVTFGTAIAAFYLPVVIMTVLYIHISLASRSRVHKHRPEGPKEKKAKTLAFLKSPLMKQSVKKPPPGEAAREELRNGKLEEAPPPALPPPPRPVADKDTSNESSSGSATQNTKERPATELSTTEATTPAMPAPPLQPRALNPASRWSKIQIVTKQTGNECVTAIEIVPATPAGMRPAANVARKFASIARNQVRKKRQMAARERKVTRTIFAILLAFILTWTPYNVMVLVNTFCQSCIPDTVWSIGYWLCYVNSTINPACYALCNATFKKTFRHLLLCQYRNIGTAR
# Description: as §1, §2, §3, §4, §5
smiles,measurement,setting,value
O=C(O[C@@H]1CCOC1)N1C2CCC1CC(N1CCC3(CCc4ccccc43)CC1)C2 (some centres unmarked) [compound 43],M1 Activity,M1 muscarinic receptor,xxx (activity was measured to be less than 0.1 μM)
same,Emax,M1 muscarinic receptor,> 85%
same,M4 Activity,M4 muscarinic receptor,x (activity was measured to be greater than 1.0 μM)
same,Emax,M4 muscarinic receptor,> 85%
COC(=O)N1C2CCC1CC(N1CCC3(CC1)CN(C(=O)c1cc(C)n(C)n1)c1ccc(F)cc13)C2 (centres unmarked) [compound 44],M1 Activity,M1 muscarinic receptor,xxx (activity was measured to be less than 0.1 μM)
same,Emax,M1 muscarinic receptor,65 to 85%
same,M4 Activity,M4 muscarinic receptor,xx (activity was measured to be between 0.1 μM and 1.0 μM)
same,Emax,M4 muscarinic receptor,> 85%
CCOC(=O)N1CCC(N2CCC3(CC2)CN(C(=O)c2cccc(OC)c2)c2ccc(F)cc23)CC1 [compound 45],M1 Activity,M1 muscarinic receptor,xxx (activity was measured to be less than 0.1 μM)
same,Emax,M1 muscarinic receptor,> 85%
same,M4 Activity,M4 muscarinic receptor,xxx (activity was measured to be less than 0.1 μM)
same,Emax,M4 muscarinic receptor,65 to 85%
CCOC(=O)N1CCC(CN2CCC3(CC2)CN(C(C)=O)c2ccc(C)cc23)CC1 [compound 46],M1 Activity,M1 muscarinic receptor,xxx (activity was measured to be less than 0.1 μM)
same,Emax,M1 muscarinic receptor,> 85%
same,M4 Activity,M4 muscarinic receptor,xxx (activity was measured to be less than 0.1 μM)
same,Emax,M4 muscarinic receptor,65 to 85%
CC(=O)N1CC2(CCN(C3CC4CCC(C3)N4C(=O)O[C@H]3CCOC3)CC2)c2cc(F)ccc21 (some centres unmarked) [compound 47],M1 Activity,M1 muscarinic receptor,xxx (activity was measured to be less than 0.1 μM)
same,Emax,M1 muscarinic receptor,65 to 85%
same,M4 Activity,M4 muscarinic receptor,xx (activity was measured to be between 0.1 μM and 1.0 μM)
same,Emax,M4 muscarinic receptor,65 to 85%
CN(C)C(=O)N1CC2(CCN(C3CCN(C(=O)OCCF)CC3)CC2)c2cc(F)ccc21 [compound 48],M1 Activity,M1 muscarinic receptor,xxx (activity was measured to be less than 0.1 μM)
same,Emax,M1 muscarinic receptor,> 85%
same,M4 Activity,M4 muscarinic receptor,xx (activity was measured to be between 0.1 μM and 1.0 μM)
same,Emax,M4 muscarinic receptor,65 to 85%
CCOC(=O)N1CCC(N2CCC3(CC2)CN(C(=O)O[C@H]2CCOC2)c2ccc(F)cc23)CC1 [compound 49],M1 Activity,M1 muscarinic receptor,xxx (activity was measured to be less than 0.1 μM)
same,Emax,M1 muscarinic receptor,> 85%
same,M4 Activity,M4 muscarinic receptor,xxx (activity was measured to be less than 0.1 μM)
same,Emax,M4 muscarinic receptor,65 to 85%
CCOC(=O)N1C2CCC1CC(N1CCC3(CC1)CN(C(=O)c1cc(C)n(C)n1)c1ccc(F)cc13)C2 (centres unmarked) [compound 50],M1 Activity,M1 muscarinic receptor,xxx (activity was measured to be less than 0.1 μM)
same,Emax,M1 muscarinic receptor,> 85%
same,M4 Activity,M4 muscarinic receptor,xx (activity was measured to be between 0.1 μM and 1.0 μM)
same,Emax,M4 muscarinic receptor,> 85%
Cc1ccc2c(c1)C1(CCN(C3CC4CCC3C4)CC1)CN2C(=O)C1CC1 (centres unmarked) [compound 51],M1 Activity,M1 muscarinic receptor,xxx (activity was measured to be less than 0.1 μM)
same,Emax,M1 muscarinic receptor,65 to 85%
same,M4 Activity,M4 muscarinic receptor,xx (activity was measured to be between 0.1 μM and 1.0 μM)
same,Emax,M4 muscarinic receptor,65 to 85%
CC(=O)N1CC2(CCN(C3CCCCC3C)CC2)c2cc(F)ccc21 (centres unmarked) [compound 52],M1 Activity,M1 muscarinic receptor,xxx (activity was measured to be less than 0.1 μM)
same,Emax,M1 muscarinic receptor,> 85%
same,M4 Activity,M4 muscarinic receptor,xxx (activity was measured to be less than 0.1 μM)
same,Emax,M4 muscarinic receptor,65 to 85%
CCOC(=O)N1CCC(N2CCC3(CC2)CN(C(=O)c2ccccc2C)c2ccc(F)cc23)CC1 [compound 53],M1 Activity,M1 muscarinic receptor,xx (activity was measured to be between 0.1 μM and 1.0 μM)
same,Emax,M1 muscarinic receptor,< 65%
same,M4 Activity,M4 muscarinic receptor,xx (activity was measured to be between 0.1 μM and 1.0 μM)
same,Emax,M4 muscarinic receptor,65 to 85%
CC(C)OC(=O)N1CCC(N2CCC3(CC2)CN(C(=O)N(C)C)c2ccc(F)cc23)CC1 [compound 54],M1 Activity,M1 muscarinic receptor,xxx (activity was measured to be less than 0.1 μM)
same,Emax,M1 muscarinic receptor,> 85%
same,M4 Activity,M4 muscarinic receptor,xx (activity was measured to be between 0.1 μM and 1.0 μM)
same,Emax,M4 muscarinic receptor,65 to 85%
CC(C)C(=O)N[C@H]1CC2(CCN(C[C@H]3C[C@H]4CC[C@H]3C4)CC2)c2ccccc21 [compound 55],M1 Activity,M1 muscarinic receptor,xxx (activity was measured to be less than 0.1 μM)
same,Emax,M1 muscarinic receptor,> 85%
same,M4 Activity,M4 muscarinic receptor,xxx (activity was measured to be less than 0.1 μM)
same,Emax,M4 muscarinic receptor,65 to 85%
CCOC(=O)N1C2CCC1CC(N1CCC3(CC1)CC(=O)Nc1ccccc13)C2 (centres unmarked) [compound 56],M1 Activity,M1 muscarinic receptor,xxx (activity was measured to be less than 0.1 μM)
same,Emax,M1 muscarinic receptor,65 to 85%
same,M4 Activity,M4 muscarinic receptor,xxx (activity was measured to be less than 0.1 μM)
same,Emax,M4 muscarinic receptor,65 to 85%
O=C(C1CC1)N1CC2(CCN(C3CC4CCC(C3)N4C(=O)O[C@H]3CCOC3)CC2)c2cc(F)ccc21 (some centres unmarked) [compound 57],M1 Activity,M1 muscarinic receptor,xxx (activity was measured to be less than 0.1 μM)
same,Emax,M1 muscarinic receptor,65 to 85%
same,M4 Activity,M4 muscarinic receptor,xxx (activity was measured to be less than 0.1 μM)
same,Emax,M4 muscarinic receptor,65 to 85%
CCOC(=O)N1CCC(N2CCC3(CC2)CN(C(C)=O)c2ccc(-c4ccc(C)cc4)cc23)CC1 [compound 58],M1 Activity,M1 muscarinic receptor,xxx (activity was measured to be less than 0.1 μM)
same,Emax,M1 muscarinic receptor,65 to 85%
same,M4 Activity,M4 muscarinic receptor,xx (activity was measured to be between 0.1 μM and 1.0 μM)
same,Emax,M4 muscarinic receptor,65 to 85%
CCOC(=O)N1C2CCC1CC(N1CCC3(CC1)CN(C(=O)c1snnc1C)c1ccc(F)cc13)C2 (centres unmarked) [compound 59],M1 Activity,M1 muscarinic receptor,xxx (activity was measured to be less than 0.1 μM)
same,Emax,M1 muscarinic receptor,< 65%
same,M4 Activity,M4 muscarinic receptor,xx (activity was measured to be between 0.1 μM and 1.0 μM)
same,Emax,M4 muscarinic receptor,65 to 85%
CCOC(=O)N1CCC(CN2CCC3(CC2)CN(C(C)=O)c2ccc(F)cc23)CC1 [compound 60],M1 Activity,M1 muscarinic receptor,xx (activity was measured to be between 0.1 μM and 1.0 μM)
same,Emax,M1 muscarinic receptor,65 to 85%
same,M4 Activity,M4 muscarinic receptor,x (activity was measured to be greater than 1.0 μM)
same,Emax,M4 muscarinic receptor,65 to 85%
CCOC(=O)N1CCC(N2CCC3(CC2)C[C@H](NC(C)=O)c2ccccc23)CC1 [compound 61],M1 Activity,M1 muscarinic receptor,xxx (activity was measured to be less than 0.1 μM)
same,Emax,M1 muscarinic receptor,65 to 85%
same,M4 Activity,M4 muscarinic receptor,xx (activity was measured to be between 0.1 μM and 1.0 μM)
same,Emax,M4 muscarinic receptor,65 to 85%
C#CCCOC(=O)N1CCC(N2CCC3(CC2)CN(C(C)=O)c2ccc(F)cc23)CC1 [compound 62],M1 Activity,M1 muscarinic receptor,xxx (activity was measured to be less than 0.1 μM)
same,Emax,M1 muscarinic receptor,< 65%
same,M4 Activity,M4 muscarinic receptor,xx (activity was measured to be between 0.1 μM and 1.0 μM)
same,Emax,M4 muscarinic receptor,65 to 85%
